{"source": "patent EP0478445B1", "about": "“Composition for cleaning and decontaminating, in particular surgical instruments” (priority 1990, dated 1992)", "key": {"[1]": {"assay": "Characteristics of the ingredients (pH, solubility)", "assay_type": "physicochemical"}, "[2]": {"assay": "Irritancy of the ingredient"}, "homme": {"tested_on": "homme", "conditions": "cited from earlier work"}}, "data": [{"compound": "N|N'(N\"-2-hydroxyéthyl-N\"-carboxyéthylaminoéthyl) amidoacétate|-N,N-diméthyl-N-coco-ammoniumbétaine", "values": [{"measurement": "solubilité", "setting": "[1]", "result": "soluble de façon limpide dans l'eau, l'éthanol, l'isopropanol"}, {"measurement": "pH (à 10%)", "setting": "[1]; at 10%", "result": "8-9"}]}, {"compound": "CCCCCCCCCCCC[N+](C)(C)CC(=O)[O-]", "note": "[lauryldiméthylcarboxyméthylammonium bétaine]", "values": [{"measurement": "irritation des muqueuses et des yeux", "setting": "[2]", "result": "n'irrite ni les muqueuses ni les yeux"}]}, {"compound": "C=O", "note": "[formaldéhyde]", "values": [{"measurement": "larmoiements (inhalation)", "setting": "homme; man, inhalation", "result": "≥ 0,1 ppm"}, {"measurement": "oedème pulmonaire", "setting": "homme; man, inhalation", "result": 50, "unit": "ppm"}, {"measurement": "irritation oculaire superficielle", "setting": "homme; some exposed persons", "result": "≥ 0,4 ppm"}]}, {"compound": "CCCCCCCCC=CCCCCCCCC1=NCCN1CCO", "note": "[1-hydroxyéthyl-2-heptadécényl-imidazoline]", "values": [{"measurement": "solubilité", "setting": "[1]", "result": "soluble dans la plupart des solvants polaires et apolaires"}]}]}
